Where two headings read alike, the source gives them in different places. *1 amine or outer side, *2 acyl side, *3 side chain or, on linkers, in order; H or OH if unused. Where a SMILES comes first, the peptide text is derived from it. Side-chain parts run from the residue outwards. [ ]: non-standard residue; d: D form. The star is where a group is joined. γGlu = O=C(O)[C@H](CCC(=O)[*:2])N[*:1]; Palmitoyl = CCCCCCCCCCCCCCCC(=O)*; Aib = CC(C)(N)C(=O)O
Columns and labels:
human GCGR = human GCGR (Homo sapiens, UniProt P47871); test: Peptide-receptor mediated cAMP accumulation (LANCE Ultra cAMP) in CHO-K1 cells transfected with human GCGR; format: cell-based
human GLP-1R = human GLP-1R (Homo sapiens, UniProt P43220); test: Peptide-receptor mediated cAMP accumulation (LANCE Ultra cAMP) in CHO-K1 cells transfected with human GLP-1R; format: cell-based
[1] = hGLP1 pEC50 (cAMP mean (n = 3): 11 point curve starting at 1 nM, Table 3)
[2] = read-out: GluR pEC50 (converted)
[3] = Table 7, GLP-1R, read-out: GLP-1R pEC50 (converted)

Sequence of human GLP-1R (P43220 24-463): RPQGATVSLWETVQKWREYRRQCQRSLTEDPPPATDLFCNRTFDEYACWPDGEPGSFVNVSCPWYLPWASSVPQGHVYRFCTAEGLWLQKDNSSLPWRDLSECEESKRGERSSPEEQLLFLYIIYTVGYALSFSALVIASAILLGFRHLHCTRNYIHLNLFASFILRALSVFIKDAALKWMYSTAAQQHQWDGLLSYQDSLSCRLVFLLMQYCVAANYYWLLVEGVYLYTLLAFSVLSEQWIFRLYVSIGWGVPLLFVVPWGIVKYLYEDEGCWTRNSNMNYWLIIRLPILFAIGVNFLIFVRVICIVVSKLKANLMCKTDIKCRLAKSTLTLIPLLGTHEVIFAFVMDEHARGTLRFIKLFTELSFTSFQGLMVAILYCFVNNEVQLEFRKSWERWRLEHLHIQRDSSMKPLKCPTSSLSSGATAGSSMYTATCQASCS
Sequence of human GCGR (P47871 26-477): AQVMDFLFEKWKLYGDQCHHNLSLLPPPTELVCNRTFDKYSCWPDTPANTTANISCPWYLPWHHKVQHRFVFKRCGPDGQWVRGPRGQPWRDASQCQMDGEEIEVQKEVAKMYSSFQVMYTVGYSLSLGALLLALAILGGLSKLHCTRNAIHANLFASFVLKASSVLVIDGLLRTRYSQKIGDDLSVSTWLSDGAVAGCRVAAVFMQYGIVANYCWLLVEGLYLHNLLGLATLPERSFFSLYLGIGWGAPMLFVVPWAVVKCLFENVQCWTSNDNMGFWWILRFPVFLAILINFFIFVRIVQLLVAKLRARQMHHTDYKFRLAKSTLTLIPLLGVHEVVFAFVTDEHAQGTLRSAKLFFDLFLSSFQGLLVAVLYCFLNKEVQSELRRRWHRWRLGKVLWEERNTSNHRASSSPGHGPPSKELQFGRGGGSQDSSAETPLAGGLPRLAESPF

| SMILES | EC50 (human GCGR; Table 3) | EC50 (human GLP-1R; [1]) | EC50 (human GCGR; [2]) | EC50 (human GLP-1R; [3]) |
| --- | --- | --- | --- | --- |
| CC(C)C[C@H](NC(=O)[C@H](Cc1ccc(O)cc1)NC(=O)[C@H](CCCCN)NC(=O)[C@H](CO)NC(=O)[C@H](Cc1ccc(O)cc1)NC(=O)[C@H](CC(=O)O)NC(=O)[C@H](CO)NC(=O)[C@@H](NC(=O)[C@H](Cc1ccccc1)NC(=O)[C@@H](NC(=O)CNC(=O)[C@H](CCC(N)=O)NC(=O)[C@H](CO)NC(=O)[C@@H](N)Cc1ccc(O)cc1)[C@@H](C)O)[C@@H](C)O)C(=O)N[C@@H](CC(=O)O)C(=O)N[C@@H](CO)C(=O)N[C@@H](C)C(=O)N[C@@H](CCCNC(=N)N)C(=O)N[C@@H](C)C(=O)N[C@@H](CCC(N)=O)C(=O)N[C@@H](CCC(=O)O)C(=O)N[C@@H](Cc1ccccc1)C(=O)N[C@H](C(=O)N[C@@H](CCCCN)C(=O)N[C@@H](Cc1c[nH]c2ccccc12)C(=O)N[C@@H](CC(C)C)C(=O)N[C@@H](CCC(=O)O)C(=O)N[C@@H](CC(=O)O)C(=O)N[C@@H](CCC(=O)O)C(=O)N1CCC[C@H]1C(=O)N[C@@H](CCCCN)C(=O)N[C@@H](CO)C(=O)N[C@@H](CCCCN)C(=O)N[C@@H](C)C(=O)N1CCC[C@H]1C(=O)N1CCC[C@H]1C(=O)N1CCC[C@H]1C(=O)N[C@@H](CO)C(=O)O)C(C)C [Compound A82] (H-YSQGTFTSDYSKYLDSARAQEFVKWLEDEPKSKAPPPS-OH; N-terminus assumed) | 0.01 nM | > 1 nM | – | – |
| CC(C)C[C@H](NC(=O)[C@H](Cc1ccc(O)cc1)NC(=O)[C@H](CCCCN)NC(=O)[C@H](CO)NC(=O)[C@H](Cc1ccc(O)cc1)NC(=O)[C@H](CC(=O)O)NC(=O)[C@H](CO)NC(=O)[C@@H](NC(=O)[C@H](Cc1ccccc1)NC(=O)[C@@H](NC(=O)CNC(=O)[C@H](Cc1c[nH]cn1)NC(=O)[C@H](CO)NC(=O)[C@@H](N)Cc1ccc(O)cc1)[C@@H](C)O)[C@@H](C)O)C(=O)N[C@@H](CC(=O)O)C(=O)N[C@@H](CO)C(=O)N[C@@H](C)C(=O)N[C@@H](CCCNC(=N)N)C(=O)N[C@@H](C)C(=O)N[C@@H](CCC(N)=O)C(=O)N[C@@H](CCC(=O)O)C(=O)N[C@@H](Cc1ccccc1)C(=O)N[C@H](C(=O)N[C@@H](CCCCN)C(=O)N[C@@H](Cc1c[nH]c2ccccc12)C(=O)N[C@@H](CC(C)C)C(=O)N[C@@H](CCC(=O)O)C(=O)N[C@@H](CC(=O)O)C(=O)N[C@@H](CCC(=O)O)C(=O)N1CCC[C@H]1C(=O)N[C@@H](CCCCN)C(=O)N[C@@H](CO)C(=O)N[C@@H](CCCCN)C(=O)N[C@@H](CO)C(=O)N1CCC[C@H]1C(=O)N1CCC[C@H]1C(=O)N1CCC[C@H]1C(=O)N[C@@H](CO)C(=O)O)[C@@H](C)O [Compound A83] (H-YSHGTFTSDYSKYLDSARAQEFTKWLEDEPKSKSPPPS-OH; N-terminus assumed) | 0.0631 nM | > 1 nM | – | – |
| CC(C)C[C@H](NC(=O)[C@H](Cc1ccc(O)cc1)NC(=O)[C@H](CCCCN)NC(=O)[C@H](CO)NC(=O)[C@H](Cc1ccc(O)cc1)NC(=O)[C@H](CC(=O)O)NC(=O)[C@H](CO)NC(=O)[C@@H](NC(=O)[C@H](Cc1ccccc1)NC(=O)[C@@H](NC(=O)CNC(=O)[C@H](Cc1c[nH]cn1)NC(=O)[C@H](CO)NC(=O)[C@@H](N)Cc1ccc(O)cc1)[C@@H](C)O)[C@@H](C)O)C(=O)N[C@@H](CC(=O)O)C(=O)N[C@@H](CO)C(=O)N[C@@H](C)C(=O)N[C@@H](CCCNC(=N)N)C(=O)N[C@@H](C)C(=O)N[C@@H](CCC(N)=O)C(=O)N[C@@H](CCC(=O)O)C(=O)N[C@@H](Cc1ccccc1)C(=O)N[C@H](C(=O)N[C@@H](CCCCN)C(=O)N[C@@H](Cc1c[nH]cn1)C(=O)N[C@@H](CC(C)C)C(=O)N[C@@H](CCC(=O)O)C(=O)N[C@@H](CC(=O)O)C(=O)N[C@@H](CCC(=O)O)C(=O)N1CCC[C@H]1C(=O)N[C@@H](CCCCN)C(=O)N[C@@H](CO)C(=O)N[C@@H](CCCCN)C(=O)N[C@@H](CO)C(=O)N1CCC[C@H]1C(=O)N1CCC[C@H]1C(=O)N1CCC[C@H]1C(=O)N[C@@H](CO)C(=O)O)C(C)C [Compound A84] (H-YSHGTFTSDYSKYLDSARAQEFVKHLEDEPKSKSPPPS-OH; N-terminus assumed) | 0.398 nM | > 1 nM | – | – |
| CC(C)C[C@H](NC(=O)[C@H](Cc1ccc(O)cc1)NC(=O)[C@H](CCCCN)NC(=O)[C@H](CO)NC(=O)[C@H](Cc1ccc(O)cc1)NC(=O)[C@H](CC(=O)O)NC(=O)[C@H](CO)NC(=O)[C@@H](NC(=O)[C@H](Cc1ccccc1)NC(=O)[C@@H](NC(=O)CNC(=O)[C@H](CCC(N)=O)NC(=O)[C@H](CO)NC(=O)[C@@H](N)Cc1c[nH]c2ccccc12)[C@@H](C)O)[C@@H](C)O)C(=O)N[C@@H](CC(=O)O)C(=O)NC(C)(C)C(=O)N[C@@H](CCCCN)C(=O)N[C@@H](C)C(=O)N[C@@H](C)C(=O)N[C@@H](CCC(N)=O)C(=O)N[C@@H](CCC(=O)O)C(=O)N[C@@H](Cc1ccccc1)C(=O)N[C@H](C(=O)NC(C)(C)C(=O)N[C@@H](Cc1c[nH]c2ccccc12)C(=O)N[C@@H](CC(C)C)C(=O)N[C@@H](CCC(=O)O)C(=O)N[C@@H](CC(=O)O)C(=O)N[C@@H](CCC(=O)O)C(=O)N1CCC[C@H]1C(=O)N[C@@H](CO)C(=O)N[C@@H](CO)C(=O)NCC(=O)N[C@@H](C)C(=O)N1CCC[C@H]1C(=O)N1CCC[C@H]1C(=O)N1CCC[C@H]1C(=O)N[C@@H](CO)C(=O)O)C(C)C [Compound A92] (H-WSQGTFTSDYSKYLD[Aib]KAAQEFV[Aib]WLEDEPSSGAPPPS-OH; N-terminus assumed) | 0.02 nM | > 1 nM | – | – |
| CC(C)C[C@H](NC(=O)[C@H](Cc1ccc(O)cc1)NC(=O)[C@H](CCCCN)NC(=O)[C@H](CO)NC(=O)[C@H](Cc1ccc(O)cc1)NC(=O)[C@H](CC(=O)O)NC(=O)[C@H](CO)NC(=O)[C@@H](NC(=O)[C@H](Cc1ccccc1)NC(=O)[C@@H](NC(=O)CNC(=O)[C@H](CCC(N)=O)NC(=O)[C@H](CO)NC(=O)[C@@H](N)Cc1c[nH]c2ccccc12)[C@@H](C)O)[C@@H](C)O)C(=O)N[C@@H](CC(=O)O)C(=O)NC(C)(C)C(=O)N[C@@H](CCCCN)C(=O)N[C@@H](C)C(=O)N[C@@H](C)C(=O)N[C@@H](CCC(N)=O)C(=O)N[C@@H](CCC(=O)O)C(=O)N[C@@H](Cc1ccccc1)C(=O)N[C@H](C(=O)NC(C)(C)C(=O)N[C@@H](Cc1c[nH]c2ccccc12)C(=O)N[C@@H](CC(C)C)C(=O)N[C@@H](CCC(=O)O)C(=O)N[C@@H](CC(=O)O)C(=O)N[C@@H](CCC(=O)O)C(=O)N1CCC[C@H]1C(=O)N[C@@H](CO)C(=O)N[C@@H](CO)C(=O)NCC(=O)N[C@@H](CCCCN)C(=O)N1CCC[C@H]1C(=O)N1CCC[C@H]1C(=O)N1CCC[C@H]1C(=O)N[C@@H](CO)C(=O)O)C(C)C [Compound A93] (H-WSQGTFTSDYSKYLD[Aib]KAAQEFV[Aib]WLEDEPSSGKPPPS-OH; N-terminus assumed) | 0.0126 nM | > 1 nM | – | – |
| CCCCCCCCCCCCCCCC(=O)N[C@@H](CCC(=O)NCCCC[C@H](NC(=O)[C@@H](NC(=O)[C@H](Cc1ccccc1)NC(=O)[C@H](CCC(=O)O)NC(=O)[C@H](CCC(N)=O)NC(=O)[C@H](C)NC(=O)[C@H](Cc1ccc(O)cc1)NC(=O)[C@H](CCCCN)NC(=O)C(C)(C)NC(=O)[C@H](CC(=O)O)NC(=O)[C@H](CC(C)C)NC(=O)[C@H](Cc1ccc(O)cc1)NC(=O)[C@H](CCCCN)NC(=O)[C@H](CO)NC(=O)[C@H](Cc1ccc(O)cc1)NC(=O)[C@H](CC(=O)O)NC(=O)[C@H](CO)NC(=O)[C@@H](NC(=O)[C@H](Cc1ccccc1)NC(=O)[C@@H](NC(=O)CNC(=O)[C@H](Cc1c[nH]cn1)NC(=O)[C@H](CO)NC(=O)[C@@H](N)Cc1ccc(O)cc1)[C@@H](C)O)[C@@H](C)O)C(C)C)C(=O)N[C@@H](Cc1c[nH]c2ccccc12)C(=O)N[C@@H](CC(C)C)C(=O)N[C@@H](CCC(=O)O)C(=O)N[C@@H](CC(=O)O)C(=O)N[C@@H](CCC(=O)O)C(=O)N1CCC[C@H]1C(=O)N[C@@H](CO)C(=O)N[C@@H](CO)C(=O)NCC(=O)N[C@@H](C)C(=O)N1CCC[C@H]1C(=O)N1CCC[C@H]1C(=O)N1CCC[C@H]1C(=O)N[C@@H](CO)C(=O)O)C(=O)O [Compound B2] | – | – | 0.00794 nM | > 1000 nM |
| CCCCCCCCCCCCCCCC(=O)N[C@@H](CCC(=O)NCCCC[C@H](NC(=O)[C@H](CC(=O)O)NC(=O)[C@H](CO)NC(=O)[C@@H](NC(=O)[C@H](Cc1ccccc1)NC(=O)[C@@H](NC(=O)CNC(=O)[C@H](Cc1c[nH]cn1)NC(=O)[C@H](CO)NC(=O)[C@@H](N)Cc1ccc(O)cc1)[C@@H](C)O)[C@@H](C)O)C(=O)N[C@@H](CO)C(=O)N[C@@H](CCCCN)C(=O)N[C@@H](Cc1ccc(O)cc1)C(=O)N[C@@H](CC(C)C)C(=O)N[C@@H](CC(=O)O)C(=O)NC(C)(C)C(=O)N[C@@H](CCCCN)C(=O)N[C@@H](Cc1ccc(O)cc1)C(=O)N[C@@H](C)C(=O)N[C@@H](CCC(N)=O)C(=O)N[C@@H](CCC(=O)O)C(=O)N[C@@H](Cc1ccccc1)C(=O)N[C@H](C(=O)NC(C)(C)C(=O)N[C@@H](Cc1c[nH]c2ccccc12)C(=O)N[C@@H](CC(C)C)C(=O)N[C@@H](CCC(=O)O)C(=O)N[C@@H](CC(=O)O)C(=O)N[C@@H](CCC(=O)O)C(=O)N1CCC[C@H]1C(=O)N[C@@H](CO)C(=O)N[C@@H](CO)C(=O)NCC(=O)N[C@@H](C)C(=O)N1CCC[C@H]1C(=O)N1CCC[C@H]1C(=O)N1CCC[C@H]1C(=O)N[C@@H](CO)C(=O)O)C(C)C)C(=O)O [Compound B4] (H-YSHGTFTSDK([γGlu-Palmitoyl])SKYLD[Aib]KYAQEFV[Aib]WLEDEPSSGAPPPS-OH) | – | – | 0.794 nM | > 1000 nM |
